From ChEMBL document CHEMBL1201862, “PubChem BioAssay data set” (2004)
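Cells were grown in 96-well plates and exposed to each compound for 48 hours at five concentrations; endpoints were interpolated linearly between bracketing concentrations, or set to the highest concentration if not reached. GI50: concentration for 50% inhibition of growth.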 The source made the active and inactive calls. Cut-off read from the data, not from the text of the source: active = GI50 up to about 1.1 µM and inactive = higher.

How the values were obtained:
Test in all cases: NCI tumour cell line growth inhibition, 48 h
Hs-578T = system: Hs-578T
MDA-N = system: MDA-N
DMS-114 = system: DMS-114
LXFL 529 = system: LXFL 529
SNB-78 = system: SNB-78
XF498 = system: XF498
HOP-18 = system: HOP-18
KM-20L2 = system: KM-20L2
RXF 631 = system: RXF 631

## CC12CC(=O)C3C(CCC4=CC(=O)CCC43C)C1CC=C2CC(=O)O (configuration not stated)
Hs-578T
  GI50: > 100 µM (inactive)
MDA-N
  GI50: > 100 µM (inactive)

## CC(=O)CCCCO
DMS-114
  GI50: > 100 µM (inactive)
LXFL 529
  GI50: > 100 µM (inactive)
SNB-78
  GI50: > 100 µM (inactive)
XF498
  GI50: > 100 µM (inactive)

## O=c1[nH]nc(Cc2ccccc2)n1CCCl
Hs-578T
  GI50: > 100 µM (inactive)
MDA-N
  GI50: > 100 µM (inactive)

## N#CC1CNC(N)NC1N (configuration not stated)
Hs-578T
  GI50: > 100 µM (inactive)
MDA-N
  GI50: > 100 µM (inactive)

## COc1cc(-c2cc(=O)c3c(O)c(OC)c(OC)c(OC)c3o2)ccc1O
DMS-114
  GI50: 23.9 µM (inactive)
HOP-18
  GI50: 32.4 µM (inactive)
KM-20L2
  GI50: 40.2 µM (inactive)
LXFL 529
  GI50: 16.6 µM (inactive)
SNB-78
  GI50: 27.7 µM (inactive)

## CCOC(=O)/C(=C\c1cccc(C)c1)C(C)=O
Hs-578T
  GI50: 20.7 µM (inactive)
MDA-N
  GI50: 12.7 µM (inactive)

## CC(=O)NC1C(Sc2ncn(C3OC(CO)C(O)C(O)C3NC(C)=O)n2)OC(CO)C(O)C1O (configuration not stated)
Hs-578T
  GI50: > 100 µM (inactive)
MDA-N
  GI50: > 100 µM (inactive)

## O=c1[nH]c(=O)n(COCc2ccccc2)c2ccccc12
MDA-N
  GI50: 83 µM (inactive)

## Cc1cn2c(C)csc2c1P(=O)(OC(C)C)OC(C)C
Hs-578T
  GI50: > 100 µM (inactive)
MDA-N
  GI50: > 100 µM (inactive)

## CCc1cccc(C(C)C)c1NC(=O)CC1Sc2ccccc2NC1=O (configuration not stated)
DMS-114
  GI50: 44.1 µM (inactive)
HOP-18
  GI50: > 100 µM (inactive)
LXFL 529
  GI50: 43.5 µM (inactive)
SNB-78
  GI50: > 100 µM (inactive)
XF498
  GI50: 53.6 µM (inactive)

## O=c1[nH]c(Br)nc2c(N3CCCCC3)c[nH]c12
DMS-114
  GI50: > 100 µM (inactive)
HOP-18
  GI50: > 100 µM (inactive)
KM-20L2
  GI50: > 100 µM (inactive)
LXFL 529
  GI50: > 100 µM (inactive)
SNB-78
  GI50: > 100 µM (inactive)
XF498
  GI50: > 100 µM (inactive)

## O=[N+]([O-])/C=C/c1ccc2ccccc2c1
Hs-578T
  GI50: 4.44 µM (inactive)

## CC(=O)OC1CC[C@@]2(C)C(=CC[C@@H]3[C@@H]2CC[C@]2(C)Nc4c(cnn4-c4ccc(F)cc4)C[C@@H]32)C1 (some centres not stated)
Hs-578T
  GI50: 14.1 µM (inactive)
MDA-N
  GI50: 39.2 µM (inactive)

## CCCCC1c2c([nH]c3ccccc23)C2C(=O)N(c3ccc(OC)cc3)C(=O)C2C1CCC (configuration not stated)
Hs-578T
  GI50: 1.87 µM (inactive)
MDA-N
  GI50: 3.02 µM (inactive)

## O=C1/C(=C/c2ccc(O)c(O)c2)CC/C1=C\c1ccc(O)c(O)c1
MDA-N
  GI50: 4.61 µM (inactive)

## O=C1C=CC2(C=C1)C[C@H](NC(=O)C(F)(F)F)C(=O)O2
DMS-114
  GI50: 64.6 µM (inactive)
KM-20L2
  GI50: > 100 µM (inactive)
LXFL 529
  GI50: 23.7 µM (inactive)
SNB-78
  GI50: > 100 µM (inactive)

## COC(=O)/C=C(C)/C=C\COC1CCCCO1 (configuration not stated)
Hs-578T
  GI50: > 100 µM (inactive)
MDA-N
  GI50: > 100 µM (inactive)

## CCNc1ncnc2nn[nH]c12
MDA-N
  GI50: > 100 µM (inactive)

## CC1(C)[C@@H]2CC[C@@]1(C)CN(CCC[N+](C)(C)C)C2
Hs-578T
  GI50: > 100 µM (inactive)
MDA-N
  GI50: > 100 µM (inactive)

## c1ccc(-c2nc3ccccc3n3c(CN4CCCCC4)nnc23)cc1
Hs-578T
  GI50: 69.2 µM (inactive)
MDA-N
  GI50: > 100 µM (inactive)

## CCCC(=O)NC1CCc2cc(OC)c(OC)c(OC)c2-c2ccc(OC)c(=O)cc21 (configuration not stated)
Hs-578T
  GI50: 0.000237 µM (active)
MDA-N
  GI50: 0.000335 µM (active)

## C=C=C(C(=O)OC)[S+]([O-])c1ccccc1[N+](=O)[O-] (configuration not stated)
DMS-114
  GI50: > 100 µM (inactive)
HOP-18
  GI50: > 100 µM (inactive)
KM-20L2
  GI50: > 100 µM (inactive)
LXFL 529
  GI50: > 100 µM (inactive)
SNB-78
  GI50: > 100 µM (inactive)
XF498
  GI50: > 100 µM (inactive)

## Cn1c(=O)c2c(nc(Nc3ccc(Cl)cc3)n3c(=O)n(-c4ccccc4)c(=O)n23)n(C)c1=O
Hs-578T
  GI50: > 100 µM (inactive)
MDA-N
  GI50: > 100 µM (inactive)

## COC(=O)C12CCCN1CCC2
MDA-N
  GI50: > 100 µM (inactive)

## CCOc1ccccc1NC(=O)/C=C1\NC(=O)CS1
DMS-114
  GI50: > 100 µM (inactive)
HOP-18
  GI50: 98.2 µM (inactive)
KM-20L2
  GI50: > 100 µM (inactive)
LXFL 529
  GI50: > 100 µM (inactive)
SNB-78
  GI50: > 100 µM (inactive)
XF498
  GI50: > 100 µM (inactive)

## O=C1NC(N2CCOCC2)=N/C1=C\c1ccc(O)cc1
Hs-578T
  GI50: 4.84 µM (inactive)
MDA-N
  GI50: > 100 µM (inactive)

## COc1ccc(/C=C/C(=O)Oc2cc(O)cc(O)c2)cc1
MDA-N
  GI50: 58.5 µM (inactive)

## CCOC(=O)c1csc(NC(=O)CN2CCOCC2)n1
Hs-578T
  GI50: > 100 µM (inactive)
MDA-N
  GI50: > 100 µM (inactive)

## COc1ccc2c(c1)[n+]([O-])c(-c1nc3ccccc3s1)c(N)[n+]2[O-]
HOP-18
  GI50: > 100 µM (inactive)
KM-20L2
  GI50: > 100 µM (inactive)
LXFL 529
  GI50: 58.1 µM (inactive)
RXF 631
  GI50: 88.5 µM (inactive)
SNB-78
  GI50: > 100 µM (inactive)

## CCCCCCCCC[C@@H]1C[C@@H]2CCC3C(C(=O)OC)=C(C)N=C(N1)N32 (some centres not stated)
Hs-578T
  GI50: 4.66 µM (inactive)

## O=[N+]([O-])c1ccc2c(c1)C1=C(CO2)Cc2ccccc2O1
MDA-N
  GI50: 17.9 µM (inactive)

## C[P+](c1ccccc1)(c1ccc(Cl)cc1)c1ccc(Cl)cc1
Hs-578T
  GI50: 20.7 µM (inactive)

## O=C(Cc1nc2ccccc2o1)C(=O)Nc1cccc(C(F)(F)F)c1
DMS-114
  GI50: > 100 µM (inactive)
HOP-18
  GI50: 45 µM (inactive)
KM-20L2
  GI50: > 100 µM (inactive)
LXFL 529
  GI50: > 100 µM (inactive)
RXF 631
  GI50: > 100 µM (inactive)
SNB-78
  GI50: > 100 µM (inactive)

## CC(=O)OC[C@H]1O[C@@H](O[C@H]2[C@H](OC(C)=O)C=CO[C@@H]2COC(C)=O)C(OC(C)=O)[C@H]2OC(C)(C)O[C@H]21 (some centres not stated)
Hs-578T
  GI50: 32.1 µM (inactive)
